From patent publication US20040248234A1, “Sensitive and selective in vitro assay for the detection of reactive drug intermediates” (Pfizer Inc, priority 2003, published 2004)
Read-outs that look alike come from different tables or passages of the source.

Legend:
[1] = literature reports; cited from earlier work
[2] = test system: human liver microsomal (HL-mix-13)
[3] = test system: human liver microsomal (HL-mix-13); details: 10 μM substrate, 1 mM GSH, 0.5 μM P450, NADPH generating system, HPLC/SRM

Molecule | Response observed using GSH-EE as trapping agent [2] | other results
CC(=O)Nc1ccc(O)cc1 [Acetaminophen] |  | formation of reactive species / reactive intermediates as reported [1]: have been reported to produce such species
CCN(CC)Cc1cc(Nc2ccnc3cc(Cl)ccc23)ccc1O [Amodiaquine] | Yes | 
NC(=O)N1c2ccccc2C=Cc2ccccc21 [Carbamazepine] | Yes | 
O=C(O)Cc1ccccc1Nc1c(Cl)cccc1Cl [Diclofenac] | Yes | 
COc1ccc2c(c1)c(CC(=O)O)c(C)n2C(=O)c1ccc(Cl)cc1 [Indomethacin] | No | 
CN(CCOc1ccc(CC2SC(=O)NC2=O)cc1)c1ccccn1 (stereo not drawn) [Rosiglitazone] | Yes | 
CC(=O)Oc1ccccc1C(=O)O [aspirin] |  | formation of reactive species / reactive intermediates as reported [1]: have not been reported to produce such reactive species
Felbamate |  | Response observed using GSH as trapping agent [3]: No (A response in the assay was deemed “no” if the signal to noise ratio was <10); Response observed using GSH-EE as trapping agent ([2]; 10 μM substrate, 1 mM GSH-EE, 0.5 μM P450, NADPH generating system, HPLC/SRM): Yes (A response in the assay was deemed “yes” if there were no co-eluting species contained in control (blank) samples and analyte peak to signal ratio was >10)
